Measured values as given in US20240150335A1, “FUSED RING DERIVATIVES CONTAINING 1,4-OXAZEPANE” (MEDSHINE DISCOVERY INC., priority 2021, published 2024).

Columns and labels:
[1] = molecular target: Recombinant human cathepsin C/DPP1; assay: Inhibition effect test of DPP1 enzyme activity; assay type: biochemical; details: recombinant human cathepsin C/DPP1, Gly-Arg-AMC substrate 12.5 μM, 25° C. 60 minutes; read-out: IC50, inhibitory activity on DPP1 enzyme
Procedure: Experimental Example 1: Inhibition Effect Test of DPP1 Enzyme Activity
Recombinant human cathepsin C/DPP1 was purchased from R&D Systems;
Recombinant human cathepsin L (rhCathepsin L) was purchased from R&D Systems;
Gly-Arg-AMC (hydrochloride) was purchased from CAYMAN CHEMICAL COMPANY.
1× activation buffer: 5 mM DTT 0.01% (V/V) Triton X-100 (preparation for current use);
1× assay buffer: 50 mM NaCl 5 mM DTT 0.01% (V/V) Triton X-100 (preparation for current use);
1× activation buffer was used to dilute recombinant human cathepsin C/DPP1 enzyme and recombinant human cathepsin L (rhCathepsin L) enzyme to concentrations of 2 ng/μL and 0.4 ng/μL, respectively; equal volume of two working solutions of enzyme was taken, mixed well and incubated at 25° C. for 60 minutes;
the compounds to be tested were 5-fold diluted with a multi-channel pipette to the 8th concentration, i.e., diluted from 1 mM to 12.8 nM. Then 1× experimental buffer was used to dilute each compound to be tested by gradient into a 4% DMSO working solution. The working solution was added to corresponding wells for 5 μL/well, and duplicate experiment was set. The mixture was centrifuged at 1000 rpm for 1 minute;
5 μL/well of the enzyme mixture after incubation was taken and added to the white microwell plate. At this time, the amount of DPP1 enzyme in each well was 5 ng; 1× experimental buffer in 5 μL/well was added to the blank control well;
Gly-Arg-AMC (hydrochloride) was diluted to 25 μM with 1× assay buffer. The diluted mixture in 10 μL/well was added to a white microwell plate. The substrate concentration was 12.5 μM at this time, and the microplate was centrifuged in a centrifuge at 1000 rpm for 1 minute. […] After centrifugation, the microplate was covered with membrane and incubated at 25° C. for 60 minutes;
after incubation, fluorescence detection was performed using a multi-label analyzer with an excitation wavelength of 360 nm and an emission wavelength of 460 nm.
Using the equation (Sample−Min)/(Max−Min)×100% to convert the raw data into enzyme activity, the IC50 value might be obtained by curve fitting with four parameters (obtained by “log (inhibitor) vs. response—Variable slope” mode in GraphPad Prism).
Max: Contains recombinant human cathepsin C/DPP1, recombinant human cathepsin L (rhCathepsin L), and Gly-Arg-AMC (hydrochloride)
Min: No recombinant human cathepsin C/DPP1 and recombinant human cathepsin L (rhCathepsin L)

[2] = Pharmacokinetic evaluation in SD rats; assay type: in vivo; details: oral administration 10.0 mg/kg
Procedure: Experimental Example 4: Pharmacokinetic Evaluation of the Compound of the Present Disclosure in Rats
Experimental purpose: To test the pharmacokinetics of the compound in SD rats in vivo
Experimental materials: SD rats (male, 200 to 300 g, 6 to 10 weeks old, Beijing Vital River)
The pharmacokinetic characteristics of the compound in rodents after intravenous injection and oral administration were tested according to the standard protocol. In the experiment, the candidate compound was formulated into clear solutions, and a single intravenous injection and oral administration were respectively given to two rats. The vehicle of intravenous injection and oral administration is 5:95 DMSO and 10% hydroxypropyl β-cyclodextrin aqueous solution. The whole blood samples within 24 hours were collected in commercial EDTA2K anticoagulant tubes. The tubes were centrifuged at 6000 g for 3 minutes. The supernatant was separated to obtain plasma samples. 20 times the volume of acetonitrile solution containing internal standard was added to precipitate protein. The mixture was centrifuged. The supernatant was take out. An equal volume of water was added. Then the mixture was centrifuged to take the supernatant as the sample for sampling. Plasma concentration was quantitatively analyzed by LC-MS/MS analysis method, and pharmacokinetic parameters were calculated, such as apparent volume of distribution, clearance rate, half-life, area under the drug-time curve.

[3] = Mouse tissue (bone marrow) distribution; assay type: in vivo; details: CD-1 mice
Procedure: Experimental Example 5: Evaluation of Mouse Tissue (Bone Marrow) Distribution of the Compound of the Present Disclosure
Experimental purpose: To test the distribution of the compound of the present disclosure in the bone marrow and plasma of CD-1 mice
Experimental materials: CD-1 mice (male, 20 to 40 g, 4 to 6 weeks old, Beijing Vital River)
The content of the compound in the bone marrow and plasma of mice after oral administration was tested according to the standard protocol. In the experiment, the candidate compound was formulated into a clear solution. The vehicle was 5:95 DMSO and 10% hydroxypropyl β-cyclodextrin aqueous solution. A dose of 5 mg/kg was given to mice as a single oral administration. The whole blood samples and bone marrow samples were collected at 0.25, 0.5, 1, 2, 4, 6, and 24 hours, respectively. The whole blood samples were collected in commercial EDTA2K anticoagulant tubes. The tubes were centrifuged at 6000 g for 3 minutes. The supernatant was separated to obtain plasma samples. The acetonitrile solution containing internal standard was added to precipitate protein. The mixture was centrifuged. The supernatant was take out. An equal volume of water was added. After mixing well, plasma concentration was quantitatively analyzed by LC-MS/MS analysis method, and the area under the drug-time curve was calculated. The femur and tibia on both sides of the mice were taken, and the muscle was removed. One end was cut off, placed in a centrifuge tube with the open end downwards. The tubes were centrifuged at 8000 rpm for 1 minute. The precipitate was bone marrow. The bone marrow was mixed with 50% methanol-water, grinded into a homogenate. The homogenate was added with an acetonitrile solution containing an internal standard to precipitate protein. The mixture was centrifuged to take the supernatant, added with an equal volume of water. After mixing well, the drug concentration in bone marrow was quantitatively analyzed by LC-MS/MS analysis method, and the area under the drug-time curve was calculated.
The calculation formula of bone marrow/plasma distribution coefficient is: Bone marrow/Plasma Ratio=bone marrow AUC0-last/plasma AUC0-last.

[4] = plasma, intravenous injection 2.0 mg/kg
[5] = bone marrow, 5 mg/kg single oral administration

IC50 [1]: 3.57 nM
Bioavailability F ([2]; intravenous injection 2.0 mg/kg): 39.1%
Clearance rate CL [2, 4]: 13.1 mL/min/kg
Volume of distribution at steady state Vdss [2, 4]: 1.9 L/kg
Cmax ([2]; plasma, intravenous injection 2.0 mg/kg, read-out: Peak concentration Cmax): 2240 nM
Area under drug-time curve AUC0-∞ PO ([2]; plasma): 11.864 µM·h
Half life T1/2 (PO) ([2]; plasma): 3.2 h
Bone marrow/plasma distribution coefficient ([3]; 5 mg/kg oral, bone marrow AUC0-last/plasma AUC0-last): 4.5
Bone marrow Area under drug-time curve AUC0-last PO [3, 5]: 82362 nmol·h/kg
Bone marrow Peak concentration Cmax [3, 5]: 6113 nmol/kg
Plasma Area under drug-time curve AUC0-last PO ([3]; plasma, 5 mg/kg single oral administration): 18.362 µM·h
Cmax ([3]; plasma, 5 mg/kg single oral administration, read-out: Plasma Peak concentration Cmax): 2300 nM
SMILES: Cn1ncc2ccc(-c3ccc(C[C@@H](C#N)NC(=O)[C@@H]4CNCCCO4)c(F)c3)cc21 [Compound 8]
